Where “and” joins values, the source holds several entries; their conditions need not be identical. Equal values may be shown once. Entries after “also recorded” stand apart in the source; their conditions may differ.
Columns and labels:
[1] = test system: classical pathway of complement; assay: Classical pathway complement inhibition ELISA (C3b deposition) in normal human plasma; type: biochemical; settings: human plasma diluted 1:40; mean of at least three experiments
Description: For this purpose, microtiter wells (NUNC) were coated with 50 μl of 1% ovalbumin in PBS (pH 7.4) at ambient temperature for 2 h. The wells were blocked with 200 μl of 1% BSA in PBS for 1 h, then coated with 50 μl of 1:1000 α-ovalbumin polyclonal antibody in PBS for 1 h. Between each step, the plate was washed thrice with 200 μl of 0.05% Tween 20 in PBS (PBS-T); 30 μl of VBS (Veronal buffer 1×; 5 mM veronal, pH 7.4, containing 150 mM NaCl, 0.5 mM CaCl2 and 0.5 mM MgCl2) were placed in all but the first well of each row of the 96-well plate, and 5 μM peptide solutions in VBS were prepared. […] Human plasma diluted 1:40 in VBS was incubated for 15 min with peptide of 0.005 to 2.5 μM. After washing with PBS-T, 50 μl/well of 1:1000 goat a-human C3 HRP conjugated antibody in 1% BSA in PBS was added to the wells and incubated for 1 h at room temperature. Complement fixation indicating activation was detected by the addition of HRP substrate (0.05% ABTS and 0.1% of 30% aqueous H2O2 in 0.1 M sodium citrate, pH 4.2) and read at 405 nm. The absorbance data obtained at 405 nm were translated into % inhibition, considering 100% to be equal to complement activation in the absence of peptide. The percent inhibition was plotted against the logarithm of concentrations, and the resulting data set was fitted to the equation “log(inhibitor) vs. normalized response” using GraphPad Prism 5 (La Jolla, CA). IC50 values were obtained from the fitted parameters of the mean of at least three independent experiments. Cp40 was always used as the internal control.

[2] = biological target: T1, human C3b (Homo sapiens, UniProt P01024); assay: SPR binding affinity and kinetic profile with immobilized C3b; settings: for kd, dissociation constant / Kd / ka, association constant: 25 °C; for kd, dissociation constant / ka, association constant: 1:1 Langmuir model; for Kd: KD=kd/ka, read-out: KD, equilibrium dissociation constant
T1 construct: purchased Complement Technology, Inc., Tyler, TX

[3] = test system: complement classical pathway; assay: Classical pathway activation (C3b deposition) ELISA in human plasma with or without rabbit vitreous; type: biochemical; settings: in the absence of vitreous
Description: An alternative explanation to the one presented above is that the vitreous contains additional unidentified factors that associate with the Cp40-KKK analog. To investigate whether an unidentified vitreous factor impacts the complement inhibitory activity of lysine containing compounds, complement activation assays were performed using vitreous samples. Briefly, human plasma was incubated with OVA-anti-OVA immune-complexes in the presence of serial dilutions of the Cp40-based analogs mixed with rabbit vitreous. Levels of classical pathway activation (C3b deposition) were determined by ELISA using a polyclonal anti-human C3 antibody conjugated with HRP (MP Biomedicals, Solon, OH) (FIG. 20).

[4] = for pH of the peptide solution in PBS: at the stated concentration, indicator paper
[5] = biological target: C3; settings: Qu et al. (2013); cited from earlier work
[6] = Residence time in the vitreous after single intravitreal injection (WES and SPR competition assay); type: in vivo, cynomolgus monkeys
Description: To determine the residence time of mPEG(3 k)-Cp40, mPEG(1 k)-Cp40, Cp40-KK, and Cp40-KKK in the vitreous of cynomolgus macaques, these Cp40-based analogs were administered intravitreally (i.v.t.) to the animals after induction of light ketamine anesthesia (10-15 mg/kg, by intramuscular injection (i.m.)) and dilation of the pupils with tropicamide/phenylephrine ophthalmic solution (see Table 6 for study design).
For i.v.t. injection, the cynomolgus monkeys were anesthetized with a combination of ketamine (15-25 mg/kg, i.m.) and xylazine (2 mg/kg, i.m.) and the eye was cleaned with povidone-iodine solution. After application of oxybuprocaine hydrochloride solution (Benoxil® ophthalmic solution 0.4%) to the cornea as a local anesthetic, the Cp40-based analogs were administered to the animals by i.v.t. injection into either the right (G1, G3) or left (G2, G4) eye of each animal. Immediately following each injection, a single topical dose of 0.5% levofloxacin was administered. After i.v.t. injection of mPEG(3 k)-Cp40, mPEG(1 k)-Cp40, Cp40-KK, and Cp40-KKK, vitreous fluid samples (about 50 μL each) were withdrawn from Cp40-based analog-treated eyes on days 14, 28, 42, (G1, G2, G3, G4), 56, 73, 90 (G1, G2) (this was done either three times or six times). Samples were collected on ice and stored in a deep freezer (˜79.3 to −68.5° C.) until further analysis. […] Presence and concentration of the Cp40-based analogs was determined using either the simple western technology (WES, ProteinSimple, San Jose, CA), or surface plasmon resonance (SPR)-based real-time measurement of binding kinetics on a Cp40-KKK immobilized chip (see detailed methods below). Similar results with regard to the intravitreal residence time and concentration levels of the test compounds were obtained regardless of the quantification method selected.
To quantify the levels of all test compounds in vitreous samples collected at different time points following i.v.t. injection (see FIG. 15), WES analysis was performed on a WES instrument (ProteinSimple, San Jose, CA) using a 2 to 40 kDa Separation Module and Anti-Rabbit Detection Module according to the manufacturers' instructions. […] The resulting electropherograms were evaluated using the Compass software (ProteinSimple, San Jose, CA). The following criteria were used to discriminate low peptide signals from background: The peak signal-to-noise (S/N) ratio given by the software must be ≥10, and the peak height/baseline ratio (calculated manually from the peak height and baseline values given by the software) must be equal to or greater than 3. […] Shown in FIG. 15 is a representative standard curve generated using the WES system and bands obtained upon running pre-determined amounts of purified peptide spiked into rabbit vitreous samples. […]

[7] = Pharmacokinetics in NHP plasma after single s.c. injection, with plasma C3 levels
[8] = Pharmacokinetics after single i.v. injection; type: in vivo, cynomolgus monkeys
Description: FIG. 11 show graphs of peptide concentration over time in cynomolgus monkeys to which was administered a single 2 mg/kg intravenous injection of Cp40-KK (panel a), Cp40-KKK (panel b), mPEG(1 k)-Cp40 (panel c), and mPEG(3 k)-Cp40 (panel d). […]
In vivo pharmacokinetic studies were conducted, in which cynomolgus monkeys were administered single i.v. injections of mPEG(1 k)-Cp40, mPEG(3 k)-Cp40, Cp40-KK, or Cp40-KKK.

T1 sequence (P01024 23-667 limits assumed): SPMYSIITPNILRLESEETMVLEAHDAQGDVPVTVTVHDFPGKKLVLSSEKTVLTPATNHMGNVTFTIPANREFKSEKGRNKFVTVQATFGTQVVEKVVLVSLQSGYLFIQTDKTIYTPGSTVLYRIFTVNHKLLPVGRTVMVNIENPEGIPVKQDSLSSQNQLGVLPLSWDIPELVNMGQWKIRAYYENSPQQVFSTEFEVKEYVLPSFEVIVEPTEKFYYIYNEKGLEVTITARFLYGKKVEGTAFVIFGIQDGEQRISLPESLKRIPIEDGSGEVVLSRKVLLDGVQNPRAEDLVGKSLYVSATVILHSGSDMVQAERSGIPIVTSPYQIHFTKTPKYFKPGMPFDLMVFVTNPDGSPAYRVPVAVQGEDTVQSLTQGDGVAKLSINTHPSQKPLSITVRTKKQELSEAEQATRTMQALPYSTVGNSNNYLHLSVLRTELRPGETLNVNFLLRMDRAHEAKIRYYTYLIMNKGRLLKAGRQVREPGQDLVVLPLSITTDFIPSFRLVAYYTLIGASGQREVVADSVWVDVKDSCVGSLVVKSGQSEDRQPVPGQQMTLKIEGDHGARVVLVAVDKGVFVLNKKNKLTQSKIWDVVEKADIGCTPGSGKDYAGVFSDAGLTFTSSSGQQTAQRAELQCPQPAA
T1 sequence (P01024 749-1663 partner limits assumed): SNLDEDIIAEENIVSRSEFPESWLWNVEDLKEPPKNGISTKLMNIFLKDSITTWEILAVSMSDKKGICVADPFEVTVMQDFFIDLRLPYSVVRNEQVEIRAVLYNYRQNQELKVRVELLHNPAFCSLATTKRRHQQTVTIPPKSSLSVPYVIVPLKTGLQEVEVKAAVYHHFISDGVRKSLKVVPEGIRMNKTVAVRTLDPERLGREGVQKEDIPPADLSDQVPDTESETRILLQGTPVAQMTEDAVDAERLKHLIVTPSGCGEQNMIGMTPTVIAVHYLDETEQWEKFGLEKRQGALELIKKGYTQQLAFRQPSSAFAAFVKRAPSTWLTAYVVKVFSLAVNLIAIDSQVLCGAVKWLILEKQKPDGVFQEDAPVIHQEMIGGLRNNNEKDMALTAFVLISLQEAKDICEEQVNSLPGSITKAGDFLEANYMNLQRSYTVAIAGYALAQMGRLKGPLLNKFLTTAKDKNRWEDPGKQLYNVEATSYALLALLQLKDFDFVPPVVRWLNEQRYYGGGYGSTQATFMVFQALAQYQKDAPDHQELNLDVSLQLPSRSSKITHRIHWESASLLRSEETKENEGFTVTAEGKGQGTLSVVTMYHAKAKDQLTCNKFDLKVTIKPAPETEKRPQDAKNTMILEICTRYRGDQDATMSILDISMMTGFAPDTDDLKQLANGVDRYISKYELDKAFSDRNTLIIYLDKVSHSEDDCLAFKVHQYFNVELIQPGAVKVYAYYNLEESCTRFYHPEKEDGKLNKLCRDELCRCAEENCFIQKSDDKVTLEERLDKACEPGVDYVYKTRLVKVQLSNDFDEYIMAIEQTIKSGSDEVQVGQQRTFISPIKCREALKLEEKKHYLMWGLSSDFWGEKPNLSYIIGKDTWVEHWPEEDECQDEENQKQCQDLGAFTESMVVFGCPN

Row | kd, dissociation constant [2] | Kd [2] [nM] | drop in the binding affinity toward C3b vs Cp40 [2] [fold] | ka, association constant [2] | detection in vitreous over time ([6]; single i.v.t. 500 μg, days 14-90) | C3 saturation time (peptide above plasma level of C3) ([7]; single s.c. 2 mg/kg) [h] | in vivo Lys cleavage in plasma ([8]; after i.v. injection) | AUC(0-t) ([8]; cynomolgus monkey, plasma, iv, 2 mg/kg, single i.v. injection, read-out: AUC0-120h) [µM·h] | SMILES | IC50 [1] [nM] | complement classical pathway inhibitory activity [3] | pH of the peptide solution in PBS [4] | binding affinity for C3 [5] | binding affinity for C3 higher than that of the parent peptide [5] | detection in vitreous ([6]; 100 μg i.v.t.) | C3 saturation time (peptide above plasma level of C3) ([7]; single s.c. 2 mg/kg, 2 mg/kg) | Conc. (mg/ml), solubility in PBS ([4]; pH 7.4) [mg/mL] | in vivo Lys cleavage in plasma ([7]; after s.c. injection, UPLC-ESI-MS) | CL/F, apparent clearance ([7]; single s.c. 2 mg/kg, SUM for Lys analogs, 2 mg/kg)
1 | 1.85 ± 0.50 10^−3s^−1 | 0.92 ± 0.2 |  |  |  |  |  |  | CC[C@H](C)[C@H](NC(=O)[C@H](N)Cc1ccc(O)cc1)C(=O)N[C@H]1CSSC[C@@H](C(=O)N(C)[C@H](C(=O)N[C@@H](CCCCN)C(N)=O)[C@@H](C)CC)NC(=O)[C@H](CCCNC(=N)N)NC(=O)[C@H](Cc2c[nH]cn2)NC(=O)[C@H](C)NC(=O)CN(C)C(=O)[C@H](Cc2c[nH]c3ccccc23)NC(=O)[C@H](CC(=O)O)NC(=O)[C@H](CCC(N)=O)NC(=O)[C@H](Cc2cn(C)c3ccccc23)NC(=O)[C@H](C(C)C)NC1=O [Cp40-K, DTyr-Ile-[Cys-Val-Trp(Me)-Gln-Asp-Trp-Sar-Ala-His-Arg-Cys]-mlle-Lys—NH2] | 95.6 ± 9.2 | inhibitory activity in a dose-dependent manner | 7.5 |  |  |  |  |  |  | 
2 | 2.45 ± 0.28 10^−3s^−1 | 2.58 ± 0.51 | 5 | 1.00 ± 0.27 10^6M^−1s^−1 |  |  |  |  | CC[C@H](C)[C@H](NC(=O)[C@@H](Cc1ccc(O)cc1)NC(=O)CCOCCOCCOCCOCCOCCOCCOCCOCCOCCOCCOCCOC)C(=O)N[C@H]1CSSC[C@@H](C(=O)N(C)[C@H](C(N)=O)[C@@H](C)CC)NC(=O)[C@H](CCCNC(=N)N)NC(=O)[C@H](Cc2c[nH]cn2)NC(=O)[C@H](C)NC(=O)CN(C)C(=O)[C@H](Cc2c[nH]c3ccccc23)NC(=O)[C@H](CC(=O)O)NC(=O)[C@H](CCC(N)=O)NC(=O)[C@H](Cc2cn(C)c3ccccc23)NC(=O)[C@H](C(C)C)NC1=O [mPEG(528)-Cp40] | 83.5 ± 8.1 |  | 7-7.5 |  |  |  |  | 2.3 |  | 
3 | 1.52 ± 0.25 10^−3s^−1 | 0.44 ± 0.17 |  |  | no longer detected on day 90 | 2.5 to 5 | metabolized to minimal amounts of Cp40-K | 85.2 | CC[C@H](C)[C@H](NC(=O)[C@H](N)Cc1ccc(O)cc1)C(=O)N[C@H]1CSSC[C@@H](C(=O)N(C)[C@H](C(=O)N[C@@H](CCCCN)C(=O)N[C@@H](CCCCN)C(N)=O)[C@@H](C)CC)NC(=O)[C@H](CCCNC(=N)N)NC(=O)[C@H](Cc2c[nH]cn2)NC(=O)[C@H](C)NC(=O)CN(C)C(=O)[C@H](Cc2c[nH]c3ccccc23)NC(=O)[C@H](CC(=O)O)NC(=O)[C@H](CCC(N)=O)NC(=O)[C@H](Cc2cn(C)c3ccccc23)NC(=O)[C@H](C(C)C)NC1=O [Cp40-KK, DTyr-Ile-[Cys-Val-Trp(Me)-Gln-Asp-Trp-Sar-Ala-His-Arg-Cys]-mIle-Lys-Lys—NH2] | 61.8 ± 4.2 | inhibitory activity in a dose-dependent manner | 7-7.5 |  |  |  |  |  | Cp40-K was also detected in the NHP plasma samples, beginning at 30 min after sc injection; also recorded: cleaved in vivo generating minimal amounts of Cp40-K | 3348 ((mg/kg)/(μM · h) and 2648 ((mg/kg)/(μM · h)
4 | 2.80 ± 0.95 10^−3s^−1 | 3.93 ± 0.39 |  | 0.72 ± 0.25 10^6M^−1s^−1 |  |  |  |  | CC[C@H](C)[C@H](NC(=O)[C@@H](Cc1ccc(O)cc1)NC(=O)CCOCCOCCOCCOCCOCCOCCOCCOCCOCCOCCOCCOCCOCCOCCOCCOCCOCCOCCOCCOCCOCCOCCOCCOC)C(=O)N[C@H]1CSSC[C@@H](C(=O)N(C)[C@H](C(N)=O)[C@@H](C)CC)NC(=O)[C@H](CCCNC(=N)N)NC(=O)[C@H](Cc2c[nH]cn2)NC(=O)[C@H](C)NC(=O)CN(C)C(=O)[C@H](Cc2c[nH]c3ccccc23)NC(=O)[C@H](CC(=O)O)NC(=O)[C@H](CCC(N)=O)NC(=O)[C@H](Cc2cn(C)c3ccccc23)NC(=O)[C@H](C(C)C)NC1=O [mPEG(1056)-Cp40] | 52 ± 2.7 |  | 7-7.5 |  |  |  |  |  |  | 

Row | SMILES | kd, dissociation constant [2] | Kd [2] [nM] | drop in the binding affinity toward C3b vs Cp40 [2] [fold] | ka, association constant [2] | detection in vitreous over time ([6]; single i.v.t. 500 μg, days 14-90) | C3 saturation time (peptide above plasma level of C3) ([7]; single s.c. 2 mg/kg) [h] | in vivo Lys cleavage in plasma ([8]; after i.v. injection) | AUC(0-t) ([8]; cynomolgus monkey, plasma, iv, 2 mg/kg, single i.v. injection, read-out: AUC0-120h) [µM·h] | IC50 [1] [nM] | complement classical pathway inhibitory activity [3] | pH of the peptide solution in PBS [4] | binding affinity for C3 [5] | binding affinity for C3 higher than that of the parent peptide [5] | detection in vitreous ([6]; 100 μg i.v.t.) | C3 saturation time (peptide above plasma level of C3) ([7]; single s.c. 2 mg/kg, 2 mg/kg) | Conc. (mg/ml), solubility in PBS ([4]; pH 7.4) [mg/mL] | in vivo Lys cleavage in plasma ([7]; after s.c. injection, UPLC-ESI-MS) | CL/F, apparent clearance ([7]; single s.c. 2 mg/kg, SUM for Lys analogs, 2 mg/kg)
5 | CC[C@H](C)[C@H](NC(=O)[C@H](N)Cc1ccc(O)cc1)C(=O)N[C@H]1CSSC[C@@H](C(=O)N(C)[C@H](C(N)=O)[C@@H](C)CC)NC(=O)[C@H](CCCNC(=N)N)NC(=O)[C@H](Cc2c[nH]cn2)NC(=O)[C@H](C)NC(=O)CN(C)C(=O)[C@H](Cc2c[nH]c3ccccc23)NC(=O)[C@H](CC(=O)O)NC(=O)[C@H](CCC(N)=O)NC(=O)[C@H](Cc2cn(C)c3ccccc23)NC(=O)[C@H](C(C)C)NC1=O [Cp40, DTyr-Ile-[Cys-Val-Trp(Me)-Gln-Asp-Trp-Sar-Ala-His-Arg-Cys]-mIle-NH2, reference compound] | 1.84 ± 0.40 10^−3s^−1 | 0.53 ± 0.14 |  |  |  |  |  |  | 56.8 ± 3 | inhibitory activity in a dose-dependent manner | 7.5 | subnanomolar | ~6,000 fold | no detection of any compound was observed after one month | 4 to 5 h and ~4.5 h |  |  | 

From patent US11884747B2, “Compstatin analogs with increased solubility and improved pharmacokinetic properties” (The Trustees of the University of Pennsylvania, priority 2018, dated 2024)
